Test results: patent publication US20100323990A1, “SHIP 1 MODULATOR PRODRUGS” (THE UNIVERSITY OF BRITISH COLUMBIA, priority 2006, published 2010)
Blank lines part the entries; values can stand above or below the compound they belong to.

Columns and labels:
[1] = test system: J774.1a macrophage cells; assay: Macrophage TNF-α NO assay (Assay 3), Griess reagent; format: cell-based; settings: 10 μg/ml test compound, LPS, supernatants after 24 hr; further: key: a ‘+’ indicates a positive result for desired activity; a ‘−’ indicates a negative result for desired activity
Description: (§1) Assay 1) In vitro testing in a SHIP enzyme assay. Test compounds were dissolved in a suitable solvent (e.g. EtOH, DMSO and others) and diluted into aqueous buffer (20 mM Tris HCl, pH 7.5 and 10 mM MgCl2). SHIP enzyme assays were performed in 96-well microtitre plates with 10 ng of enzyme/well in a total volume of 25 μL of 20 mM Tris HCl, pH 7.5 and 10 mM MgCl2. SHIP enzyme was incubated with test extracts (provided in solvent) or vehicle for 15 min at 23° C. before the addition of 100 μM inositol-1,3,4,5-tetrakisphosphate (Echelon Biosciences Inc, Salt Lake City, Utah). After 20 min at 37° C. and the amount of inorganic phosphate released assessed by the addition of Malachite Green reagent and absorbance measurement at 650 nm. Assay 2) Macrophage TNF-α production. J774.1a macrophage cells were treated with 10 μg/mL of test compound dissolved in solvent (e.g. cyclodextran) for 40 minutes prior to the addition of 100 ng/mL LPS. Culture supernatants were collected after 2 hr and 5 hr for TNF-α determination by ELISA. Assay 3) Macrophage TNF-α NO assay. J774.1a macrophage cells were treated with 10 μg/ml of test compound dissolved in solvent for 40 minutes prior to the addition of LPS. Culture supernatants were collected after 24 hr. for determination of NO concentration using the Griess reagent. Assay 4) Stimulation of mast cells by FcεRI crosslinking. Mast cells were pre-loaded overnight in BMMC medium lacking IL-3 with 0.1 μg/ml anti-DNP IgE (SPE-7, Sigma, Oakville, Ont). For calcium flux measurements, cells were incubated with 2 μM fura 2-acetoxymethyl ester (Molecular Probes, Eugene, Oreg.) in Tyrode's buffer at 23° C. for 45 min. Cells were then washed and incubated in the presence of the test compound 30 min prior to stimulation with the indicated concentration of DNP-human serum albumin (DNP-HSA). Calcium influx was monitored by spectrofluorometry as described previously. For analysis of intracellular signaling, cells were pre-loaded with anti-DNP IgE as above, pre-treated with the test compound for 30 min at 37° C. and stimulated with 20 ng/ml DNP-HSA for 5 min. Total cell lysates were then prepared and analyzed for phospho-PKB, phospho-p38^MAPK, phospho-MAPK, Grb-2 (Cell Signalling, Mississauga, Ont) and SHIP^6 by immunoblot analysis. Assay 5) Mouse acute cutaneous anaphylaxis model. 6-8 week old CD1 mice (University of British Columbia Animal Facility, Vancouver, BC) were sensitized to the hapten DNP by cutaneous application of 25 μL of 0.5% dinitrofluorobenzene (DNFB) (Sigma, Oakville, Ont) in acetone to the shaved abdomen of mice for two consecutive days. 24 hrs later, test substances (dissolved in 10 μL of 1:2 DMSO:MeOH) were painted on the right ear while the left ear received vehicle control. 30 min after drug application, DNFB was applied to both ears to induce mast cell degranulation. A 6 mm punch was taken from the ear and immediately frozen on dry ice for subsequent determination of neutrophil myeloperoxidase (MPO) activity. Assay 6) Mouse endotoxemia model. 6-8 week old C57B16 mice (VCHRI Mammalian Model of Human Disease Core Facility, Vancouver, BC) were orally administered the test compound 30 min prior to an IP injection of 2 mg/kg of LPS (E. Coli serotype 0111:B4, Sigma, Oakville, Ont). Blood was drawn 2 hrs later for determination of plasma TNFα by ELISA. Assay 7) In vitro Mulitple Myeloma (MM) assay. The ability of SHIP activators to reduce tumor cell survival was assessed in MM cell lines treated with the test compound. The lines OPM1, OPM2, MM.1S and RPMI 8226 were plated at a density of 1×10^5 cells/mL in 200 μL of medium with various concentrations of the test compound, and viable cell numbers were determined on day 3 and day 5 by trypan blue exclusion. The lines RPMI 8226 and U266 were plated at a density of 1×10^6 cells/mL in 250 μL of medium with various concentrations of the test compound. At day 4, the medium of each culture was replaced by fresh medium containing the same concentration of test compound. […]

[2] = test system: J774.1a macrophage cells; assay: Macrophage TNF-α production (Assay 2); format: cell-based; settings: 10 μg/mL test compound, 100 ng/mL LPS, supernatants after 2 hr and 5 hr; further: key: a ‘+’ indicates a positive result for desired activity; a ‘−’ indicates a negative result for desired activity
Description: as §1

[3] = test system: J774.1 macrophage cells; assay: TNFα production in LPS-stimulated J774.1 macrophages (Example 9); format: cell-based; settings: 2 ng/mL LPS
Description: An assay to determine the relative inhibition of TNFα production by Compound 103 compared to Compound 100 was conducted as follows.
J774.1 macrophage cells were plated at 2×10^5 cells/well in 24 well plates. The next day the media was changed and Compound 100, Compound 103 or cyclodextrin carrier were added to the wells at the indicated concentrations for 30 min prior to stimulation of the cells with 2 ng/mL lipopolysaccharide (LPS). LPS activation of macrophages leads to production of TNF alpha which can be detected in the culture supernatant and quantified by ELISA. The results are depicted in a graph in FIG. 1.

[4] = test system: SHIP−/− bone marrow derived macrophages; assay: LPS-stimulated TNFα production in SHIP−/− bone marrow derived macrophages; format: cell-based, mice; settings: SHIP−/− cells, 15 μM, 10 ng/mL LPS 2 h
Description: (§2) Bone marrow cells were aspirated from 4 to 8 week old C57B16×129Sv mixed background mice and SHIP^+/+ and SHIP^−/− mast cells prepared as described previously. Bone marrow derived macrophages from SHIP^+/+ and SHIP^−/− mice were obtained and maintained in IMDM supplemented with 10% FCS, 150 μM MTG, 2% C127 cell conditioned medium as a source of macrophage colony stimulating factor (M-CSF) (macrophage medium)
LPS stimulation of macrophages. For the analysis of LPS-stimulated TNFα production, 2×10^5 cells were plated the night before in 24 well plates in macrophage medium. The next day, the medium was changed and AQX-016A or carrier was added to cells at the indicated concentrations for 30 min prior to the addition of 10 ng/mL LPS. Supernatants were collected for TNFα determination by ELISA (BD Biosciences, Mississauga, ON, Canada). For analysis of intracellular signaling, 2×10^6 cells were plated the night before in 6 cm tissue culture plates. […] Calcium influx was monitored by spectrofluorometry. […] Total cell lysates were then prepared and analyzed for phospho-PKB, phospho-p38^MAPK, phospho-MAPK, Grb-2 (Cell Signalling, Mississauga, Ont) and SHIP^6 by immunoblot analysis.
The target specificity and biological efficacy of AQX-016A were assessed by comparing AQX-016A's effects on PI3K-regulated processes in primary SHIP^+/+ vs SHIP^−/− macrophages and mast cells. […]

[5] = test system: SHIP+/+ bone marrow derived macrophages; assay: LPS-stimulated TNFα production in SHIP+/+ bone marrow derived macrophages; format: cell-based, mice; settings: SHIP+/+ cells, 15 μM, 10 ng/mL LPS 2 h
Description: as §2
LPS stimulation of macrophages. For the analysis of LPS-stimulated TNFα production, 2×10^5 cells were plated the night before in 24 well plates in macrophage medium. The next day, the medium was changed and AQX-016A or carrier was added to cells at the indicated concentrations for 30 min prior to the addition of 10 ng/mL LPS. Supernatants were collected for TNFα determination by ELISA (BD Biosciences, Mississauga, ON, Canada). For analysis of intracellular signaling, 2×10^6 cells were plated the night before in 6 cm tissue culture plates. The next day, the cells were cultured in macrophage medium without M-CSF for 1 hr at 37° C. and then pretreated with AQX-016A or carrier for 30 min prior to the addition of 10 ng/mL LPS for 15 min. Cells were washed with 4° C. PBS and resuspended in lysis buffer (50 mM Hepes, 2 mM EDTA, 1 mM NaVO4, 100 mM NaF, 50 mM NaPPi and 1% NP40) supplemented with Complete Protease Inhibitor Cocktail (Roche, Montreal, Canada). Lysates were rocked at 4° C. for 30 min and clarified by centrifuging 20 min at 12000×g. Lysates were then made 1× in Laemmli's buffer, boiled 2 min and loaded onto 7.5% SDS polyacrylamide […]. Immunoblot analysis for phospho PKB (Cell Signalling, Mississauga, Ont), SHIP and actin (Santa Cruz, Santa Cruz, Calif.) were carried out as described previously. Stimulation of mast cells by FcεRI crosslinking. Mast cells were pre-loaded overnight in BMMC medium lacking IL-3 with 0.1 μg/ml anti-DNP IgE (SPE-7, Sigma, Oakville, Ont). For calcium flux measurements, cells were incubated with 2 μM fura 2-acetoxymethyl ester (Molecular Probes, Eugene, Oreg.) in Tyrode's buffer at 23° C. for 45 min. Cells were then washed and incubated in the presence of vehicle control, LY294002 or AQX-016A 30 min prior to stimulation with the indicated concentration of DNP-human serum albumin (DNP-HSA). Calcium influx was monitored by spectrofluorometry. For analysis of intracellular signaling, cells were pre-loaded with anti-DNP IgE as above, pre-treated with AQX-016A or buffer control for 30 min at 37° C. and stimulated with 20 ng/ml DNP-HSA for 5 min. Total cell lysates were then prepared and analyzed for phospho-PKB, phospho-p38^MAPK, phospho-MAPK, Grb-2 (Cell Signalling, Mississauga, Ont) and SHIP^6 by immunoblot analysis.
The target specificity and biological efficacy of AQX-016A were assessed by comparing AQX-016A's effects on PI3K-regulated processes in primary SHIP^+/+ vs SHIP^−/− macrophages and mast cells. […] LPS stimulation of macrophages is associated with a PIP3-dependent release of pro-inflammatory mediators such as TNFα. The action of AQX-016A on SHIP^+/+ vs SHIP^−/− bone marrow derived macrophages was examined. Cells were pretreated for 30 min with AQX-016A prior to stimulation with 10 ng/mL of LPS for 2 h. AQX-016A was able to suppress TNFα production in SHIP^+/+ cells by 30% at 3 μM and 50% at 15 μM (FIG. 8A). […] Activation of mast cells via IgE+ antigen crosslinking of their IgE receptors results in elevation of intracellular calcium levels.

[6] = target: T1, ΔC2 SHIP (Homo sapiens, UniProt Q92835, DEL725-863); assay: SHIP enzyme assay with C2 domain deleted SHIP; format: biochemical; settings: PI-3,4-P2 20 μM, Compound 100 3 μM, 30 μM IP4
T1 construct: His6; made in house; host or cells: mammalian expression vector pME18S
T1 sequence (Q92835 with tags, fused parts or gaps DEL725-863): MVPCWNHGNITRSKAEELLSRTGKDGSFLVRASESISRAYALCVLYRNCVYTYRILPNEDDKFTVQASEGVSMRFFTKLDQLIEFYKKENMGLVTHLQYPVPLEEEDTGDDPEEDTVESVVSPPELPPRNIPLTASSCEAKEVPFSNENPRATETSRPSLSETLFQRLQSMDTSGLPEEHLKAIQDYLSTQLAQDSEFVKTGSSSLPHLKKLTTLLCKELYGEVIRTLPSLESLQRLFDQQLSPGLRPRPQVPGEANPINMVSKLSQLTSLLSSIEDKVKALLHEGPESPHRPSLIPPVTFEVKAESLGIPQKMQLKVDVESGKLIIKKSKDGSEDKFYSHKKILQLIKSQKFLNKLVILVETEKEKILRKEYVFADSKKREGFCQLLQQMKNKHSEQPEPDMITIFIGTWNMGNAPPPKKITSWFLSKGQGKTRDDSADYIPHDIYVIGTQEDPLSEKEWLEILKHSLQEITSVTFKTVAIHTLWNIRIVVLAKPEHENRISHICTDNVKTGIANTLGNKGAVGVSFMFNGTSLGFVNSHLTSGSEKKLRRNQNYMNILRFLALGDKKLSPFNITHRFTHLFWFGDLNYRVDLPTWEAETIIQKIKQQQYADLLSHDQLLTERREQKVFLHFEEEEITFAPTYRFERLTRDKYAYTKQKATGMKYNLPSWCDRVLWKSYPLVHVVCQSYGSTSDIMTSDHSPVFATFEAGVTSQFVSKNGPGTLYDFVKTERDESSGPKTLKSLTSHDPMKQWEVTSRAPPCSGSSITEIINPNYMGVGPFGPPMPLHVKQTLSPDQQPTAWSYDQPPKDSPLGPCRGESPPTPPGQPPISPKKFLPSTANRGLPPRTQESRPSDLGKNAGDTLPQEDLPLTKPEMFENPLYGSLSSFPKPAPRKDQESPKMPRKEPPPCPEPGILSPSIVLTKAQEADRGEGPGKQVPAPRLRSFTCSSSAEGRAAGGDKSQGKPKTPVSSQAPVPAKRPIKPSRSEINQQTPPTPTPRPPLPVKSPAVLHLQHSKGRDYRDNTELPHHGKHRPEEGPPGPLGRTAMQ
Excerpt: A His6 tagged SHIP ΔC2 domain deletion mutant (deleting residues 725 to 863) in the mammalian expression vector pME18S was generated by a standard PCR-based methodology. An N-terminal His6 C2 domain construct was also generated by PCR inserted into the pET28C bacterial expression vector using EcoRI and NdeI restriction sites.
The allosteric regulation of enzymes has remained under-appreciated primarily because allosteric effectors are not easy to find. The molecular mechanism by which Compound 100 activated SHIP was investigated, first by performing classical enzyme kinetic analysis of its phosphatase activity. Activity measurements were performed with substrate concentrations from 10-100 μM.
The SHIP protein contains a C2 domain located at the carboxyterminal end of its phosphatase domain. […] SHIP lacking its the C2 domain (ΔC2 SHIP) was prepared.

[7] = test system: SHIP enzyme; assay: In vitro SHIP enzyme assay (Assay 1), phosphate release by Malachite Green; format: biochemical; settings: PI-3,4-P2 20 μM, Compound 100 3 μM, 30 μM IP4
Description: as §1

SMILES: Cc1cc(OC(=O)CN)cc2c1[C@]1(C)CCC3C(C)(C)CCC[C@]3(C)[C@H]1C2 (stereo partly shown) [Compound 103]
- Assay 3: Macrophage NO assay, desired activity [1]: +
- Assay 2: Macrophage TNF-α production, desired activity [2]: +
- relative inhibition of TNFα production [3]: Inhibits TNF Alpha Production Better than Compound 100

SMILES: O=c1cc(N2CCOCC2)oc2c(-c3ccccc3)cccc12 [LY294002, reference compound]
- suppression of TNFα production [4]: ~40%
- suppression of TNFα production [5]: ~40%

- enhancement of ΔC2 SHIP activity [6]: could not be enhanced
SMILES: CCCCCCCCCCCCCCCC(=O)OC[C@H](COP(=O)(O)O[C@H]1[C@H](O)[C@@H](O)[C@H](OP(=O)(O)O)[C@@H](OP(=O)(O)O)[C@H]1O)OC(=O)CCCCCCCCCCCCCCC [PI-3,4-P2, reference compound]
- activation of wild-type SHIP enzyme [7]: activated wild-type SHIP enzyme to a similar extent as Compound 100
